From article PMC3914206

Tests used:
Type in all cases: binding
panel of 442 kinases [1] = biological target: T1, panel of 442 kinases (Homo sapiens, UniProt P10721, V559D/V654A); settings: Compound Concentration 10 µM
T1 construct: purchased KINOMEscan
From the text: (§1) We assessed the selectivity of members of this scaffold using the KINOMEscan methodology across a near comprehensive panel of 442 kinases [[18,27]].

panel of 442 kinases [2] = biological target: T2, panel of 442 kinases (Homo sapiens, UniProt O14578); settings: Compound Concentration 10 µM
T2 construct: purchased KINOMEscan
From the text: as §1

panel of 442 kinases [3] = biological target: T3, panel of 442 kinases (Homo sapiens, UniProt P29597); settings: compound concentration 10 µM; for % Ctrl, TYK2(JH1domain-catalytic): kinase TYK2(JH1domain-catalytic); for % Ctrl, TYK2(JH2domain-pseudokinase): kinase TYK2(JH2domain-pseudokinase)
T3 construct: purchased KINOMEscan
From the text: as §1

T1 sequence (P10721 26-976 V559D/V654A): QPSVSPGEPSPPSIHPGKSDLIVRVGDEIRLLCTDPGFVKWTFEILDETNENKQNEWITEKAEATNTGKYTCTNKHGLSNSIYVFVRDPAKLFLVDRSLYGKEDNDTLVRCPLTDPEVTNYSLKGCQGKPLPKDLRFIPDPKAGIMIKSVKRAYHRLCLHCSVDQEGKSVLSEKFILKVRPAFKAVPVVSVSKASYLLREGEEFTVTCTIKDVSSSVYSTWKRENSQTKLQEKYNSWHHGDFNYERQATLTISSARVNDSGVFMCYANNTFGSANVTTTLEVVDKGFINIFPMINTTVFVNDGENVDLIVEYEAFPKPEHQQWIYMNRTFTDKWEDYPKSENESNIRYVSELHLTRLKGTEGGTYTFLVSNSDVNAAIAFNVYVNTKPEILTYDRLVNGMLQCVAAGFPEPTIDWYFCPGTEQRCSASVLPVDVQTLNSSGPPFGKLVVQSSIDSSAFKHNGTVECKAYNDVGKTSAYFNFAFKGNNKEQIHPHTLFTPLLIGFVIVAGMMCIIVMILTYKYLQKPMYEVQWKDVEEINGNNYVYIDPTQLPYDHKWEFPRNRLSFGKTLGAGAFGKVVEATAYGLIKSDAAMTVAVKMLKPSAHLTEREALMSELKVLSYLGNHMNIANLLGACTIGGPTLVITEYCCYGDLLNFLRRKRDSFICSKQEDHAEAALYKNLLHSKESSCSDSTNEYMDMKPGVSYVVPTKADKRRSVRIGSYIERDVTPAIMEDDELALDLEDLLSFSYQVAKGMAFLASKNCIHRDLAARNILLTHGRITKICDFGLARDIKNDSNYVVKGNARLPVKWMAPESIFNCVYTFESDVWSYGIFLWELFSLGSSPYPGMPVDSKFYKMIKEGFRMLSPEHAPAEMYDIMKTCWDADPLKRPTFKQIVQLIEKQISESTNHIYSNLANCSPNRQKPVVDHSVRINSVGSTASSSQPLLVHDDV
T2 sequence (O14578 whole entry): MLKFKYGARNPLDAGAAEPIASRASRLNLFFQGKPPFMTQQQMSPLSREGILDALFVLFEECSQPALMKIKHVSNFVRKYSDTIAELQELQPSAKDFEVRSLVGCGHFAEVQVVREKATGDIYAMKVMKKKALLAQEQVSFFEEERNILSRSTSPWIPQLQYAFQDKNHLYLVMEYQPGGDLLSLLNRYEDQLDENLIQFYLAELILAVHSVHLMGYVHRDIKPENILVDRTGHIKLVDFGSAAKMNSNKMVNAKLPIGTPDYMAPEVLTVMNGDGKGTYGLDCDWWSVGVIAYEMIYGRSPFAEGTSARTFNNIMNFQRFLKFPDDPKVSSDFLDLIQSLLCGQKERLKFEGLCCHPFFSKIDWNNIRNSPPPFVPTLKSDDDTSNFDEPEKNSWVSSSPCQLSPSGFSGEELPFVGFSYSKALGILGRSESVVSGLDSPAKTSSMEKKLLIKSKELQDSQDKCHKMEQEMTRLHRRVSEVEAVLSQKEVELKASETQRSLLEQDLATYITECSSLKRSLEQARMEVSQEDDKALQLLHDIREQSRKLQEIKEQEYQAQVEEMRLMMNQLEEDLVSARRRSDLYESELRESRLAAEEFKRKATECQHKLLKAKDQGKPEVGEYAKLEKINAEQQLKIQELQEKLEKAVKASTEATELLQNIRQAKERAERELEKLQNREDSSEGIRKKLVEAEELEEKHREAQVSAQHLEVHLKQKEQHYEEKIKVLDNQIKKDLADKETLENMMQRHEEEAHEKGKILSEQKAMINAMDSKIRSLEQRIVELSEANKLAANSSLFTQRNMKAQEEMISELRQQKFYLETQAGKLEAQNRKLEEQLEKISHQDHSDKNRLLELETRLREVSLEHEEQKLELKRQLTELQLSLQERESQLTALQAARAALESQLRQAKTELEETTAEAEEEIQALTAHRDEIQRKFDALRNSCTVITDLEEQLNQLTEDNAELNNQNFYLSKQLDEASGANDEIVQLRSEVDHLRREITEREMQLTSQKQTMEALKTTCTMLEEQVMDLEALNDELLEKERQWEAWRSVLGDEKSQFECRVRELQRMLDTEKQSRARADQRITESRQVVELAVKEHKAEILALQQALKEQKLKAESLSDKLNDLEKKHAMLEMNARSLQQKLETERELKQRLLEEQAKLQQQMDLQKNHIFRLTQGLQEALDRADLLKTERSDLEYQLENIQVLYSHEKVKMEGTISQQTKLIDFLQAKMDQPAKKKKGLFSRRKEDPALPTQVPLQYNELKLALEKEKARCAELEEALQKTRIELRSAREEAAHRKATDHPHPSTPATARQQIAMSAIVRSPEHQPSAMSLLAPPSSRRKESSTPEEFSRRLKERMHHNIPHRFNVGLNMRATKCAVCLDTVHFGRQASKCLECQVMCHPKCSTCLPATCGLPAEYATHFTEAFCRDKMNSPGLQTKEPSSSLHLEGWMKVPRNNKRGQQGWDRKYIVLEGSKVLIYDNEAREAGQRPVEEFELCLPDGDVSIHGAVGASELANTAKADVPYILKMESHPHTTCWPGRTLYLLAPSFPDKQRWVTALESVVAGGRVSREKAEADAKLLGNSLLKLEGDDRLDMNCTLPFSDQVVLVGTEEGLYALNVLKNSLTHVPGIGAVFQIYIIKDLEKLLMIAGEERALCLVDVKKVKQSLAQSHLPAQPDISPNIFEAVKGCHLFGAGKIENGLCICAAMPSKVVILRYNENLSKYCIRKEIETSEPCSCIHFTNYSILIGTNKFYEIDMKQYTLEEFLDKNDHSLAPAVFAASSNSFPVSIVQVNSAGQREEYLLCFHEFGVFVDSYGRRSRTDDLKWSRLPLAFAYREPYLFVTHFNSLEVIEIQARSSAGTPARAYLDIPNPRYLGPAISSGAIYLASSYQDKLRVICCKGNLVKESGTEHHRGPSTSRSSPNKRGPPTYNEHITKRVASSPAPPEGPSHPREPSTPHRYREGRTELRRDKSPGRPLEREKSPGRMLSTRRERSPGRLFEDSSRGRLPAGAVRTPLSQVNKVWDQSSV
T3 sequence (P29597 whole entry): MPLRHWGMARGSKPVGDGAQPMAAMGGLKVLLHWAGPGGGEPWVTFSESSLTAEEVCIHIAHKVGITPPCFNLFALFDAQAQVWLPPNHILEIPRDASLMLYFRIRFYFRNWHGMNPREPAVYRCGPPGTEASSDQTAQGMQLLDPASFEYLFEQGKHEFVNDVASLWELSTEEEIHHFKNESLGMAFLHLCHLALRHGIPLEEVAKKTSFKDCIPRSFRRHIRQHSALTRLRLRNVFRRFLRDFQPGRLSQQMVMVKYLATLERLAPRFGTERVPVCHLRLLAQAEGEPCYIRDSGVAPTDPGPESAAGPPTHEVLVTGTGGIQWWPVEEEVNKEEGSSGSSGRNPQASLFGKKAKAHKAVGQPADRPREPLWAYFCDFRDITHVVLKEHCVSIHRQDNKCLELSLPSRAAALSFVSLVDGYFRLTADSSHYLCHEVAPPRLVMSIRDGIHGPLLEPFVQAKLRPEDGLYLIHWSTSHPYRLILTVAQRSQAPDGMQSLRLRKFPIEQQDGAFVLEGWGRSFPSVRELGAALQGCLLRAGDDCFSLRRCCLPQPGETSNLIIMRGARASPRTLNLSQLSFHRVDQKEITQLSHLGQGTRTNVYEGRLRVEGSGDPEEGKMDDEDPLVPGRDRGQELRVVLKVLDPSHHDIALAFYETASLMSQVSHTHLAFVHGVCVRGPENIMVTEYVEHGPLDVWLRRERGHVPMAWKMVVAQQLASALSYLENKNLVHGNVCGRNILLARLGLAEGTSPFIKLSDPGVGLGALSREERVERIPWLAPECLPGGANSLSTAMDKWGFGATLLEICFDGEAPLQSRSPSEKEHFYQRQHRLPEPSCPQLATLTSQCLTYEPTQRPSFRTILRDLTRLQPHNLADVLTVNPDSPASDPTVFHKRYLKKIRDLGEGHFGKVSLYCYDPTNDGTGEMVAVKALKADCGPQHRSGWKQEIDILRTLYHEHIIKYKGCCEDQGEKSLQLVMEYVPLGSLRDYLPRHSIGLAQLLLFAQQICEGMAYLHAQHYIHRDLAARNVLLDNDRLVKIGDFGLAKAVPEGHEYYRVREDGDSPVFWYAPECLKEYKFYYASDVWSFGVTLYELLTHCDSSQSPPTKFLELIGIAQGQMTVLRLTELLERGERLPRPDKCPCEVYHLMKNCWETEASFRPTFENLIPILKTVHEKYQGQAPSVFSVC

Row | SMILES | KINOMEscan: KIT(V559D,V654A) (panel of 442 kinases [1]) | KINOMEscan: CIT (panel of 442 kinases [2]) | % Ctrl, TYK2(JH1domain-catalytic) (panel of 442 kinases [3]) [% Ctrl] | % Ctrl, TYK2(JH2domain-pseudokinase) (panel of 442 kinases [3]) [% Ctrl]
1 | COc1cc(C(=O)N2CCC(N3CCN(C)CC3)CC2)ccc1Nc1ncc2c(n1)N(C)c1ccccc1C(=O)N2C [15 (LRRK2-IN-1)] | 100 | 99 | 52 | 100
2 | COc1cc(C(=O)N2CCC(N3CCN(C)CC3)CC2)ccc1Nc1ncc2c(n1)N1CCc3cccc(c31)C(=O)N2C [Compound 24] |  | 1.5 |  | 
3 | COc1cc(C(=O)N2CCC(N3CCN(C)CC3)CC2)ccc1Nc1ncc2c(n1)N(C1CCCC1)c1ccccc1C(=O)N2C [Compound 25, 11-cyclopentyl-2-((2-methoxy-4-(4-(4-methylpiperazin-1-yl)piperidine-1-carbonyl)phenyl)amino)-5-methyl-5H-benzo[e]pyrimido[5,4-b][1,4]diazepin-6(11H)-one] | 100 | 66 | 100 | 100
4 | CCOc1cc(C(=O)N2CCC(N3CCN(C)CC3)CC2)ccc1Nc1ncc2c(n1)N(C1CCCC1)c1ccccc1C(=O)N2C [Compound 26] | 100 | 98 | 81 | 100
